How the values were obtained:
Rhizoctonia = assay: Viability of Rhizoctonia propagules on treated potato tubers in storage
Protocol: (§1) The efficacy of combinations of essential oils and potassium salt of phosphonic acid (potassium sesquiphosphite) to reduce the viability of fungal infection and diseases in potatoes during storage was measured in the following manner: the tubers were collected. 500 tubers were selected for their average infection of Rhizoctonia (variety Nicola Bio); Helminthosporium solani (variety Vivaldi traditional). The tubers were incubated at 15° C. for 45 days to allow the development of symptoms. 50 tubers (6 to 8 kg) were treated with a composition of essential oil (at 570 ppm or 1140 ppm), a composition of potassium salt of phosphonic acid at 0.6% or 1.2% by weight, as well as mixtures thereof. The phosphonic acid solution was sprayed at ambient temperature at an application rate of 75 mL per 5 kg. 50 mL of clove oil solution were sprayed out. The tubers were incubated at 8° C. for 45 days after treatment. The viability of colonies of Rhizoctonia and Helminthosporium was monitored.

Helminthosporium solani = assay: Viability of Helminthosporium solani propagules on treated potato tubers in storage
Protocol: as §1

[1] = tested on: Colletotrichum gloeosporioides; conditions: in vivo; cited from earlier work
[2] = tested on: Colletotrichum gloeosporioides; assay: Treatment of olive trees affected by Colletotrichum gloeosporioides; format: in vivo; conditions: for Percentage of olive leaves with symptoms of infection: dose 0.5% of potassium sesquiphosphite composition alone
Excerpt: A composition at about 20% of clove oil and a composition of the potassium salt of phosphonic acid were separately applied at doses of 0.3% and 0.5% respectively, as well as in combination with the same doses.

Penicilliums = conditions: ambient temperature, treatment doses close to 10,000 ppm, oranges; cited from earlier work
Geotrichum sp = assay: Efficacy against Geotrichum sp on inoculated citrus (mandarin ortanique); format: in vivo; conditions: K-Phos 500 ml/100 L (375 g/100 L potassium sesquiphosphite), spraying at ambient temperature
Protocol: The fruits were inoculated with a suspension of spores of Geotrichum sp after perforation of the skin. […] When clove oil alone was applied, the fruits were immersed for 2 min in a bath at a temperature of between 49° C. and 51° C. The fruits were stored. At various time intervals, the fruits were individually inspected for signs of phytotoxicity and efficacy by determining the percentage of the surface of the skin affected and the stage of development of the disease in the controls. The variables studied were the incidence (percentage of fruit affected) and severity of the attack (percentage of the fruit surface affected by the disease).

[3] = 0.6% potassium sesquiphosphite alone, potato tubers sprayed at ambient temperature, 45 days at 8° C. after treatment
[4] = 1.2% potassium sesquiphosphite alone, potato tubers sprayed at ambient temperature, 45 days at 8° C. after treatment
[5] = 570 ppm oil/terpene alone, potato tubers sprayed, 45 days at 8° C. after treatment

Compound: Cc1ccc(C(C)C)c(O)c1 [thymol]
- Viability of Propagules (%) Rhizoctonia (Rhizoctonia; Rhizoctonia, in vivo, 45 days, 570 ppm): 75%
- Viability of Propagules (%) Helminthosporium solani (Helminthosporium solani; Helminthosporium solani, in vivo, 45 days, 570 ppm): 45%

Compound: O=C1C2CC=CCC2C(=O)N1SC(Cl)(Cl)Cl (stereo not drawn) [Captan]
- activity in control of the disease in olive orchards [1]: low level of activity

Compound: O=[PH](O)O [phosphonic acid, Phosphonic acid]
- activity compared to the control (olive leaf infection) ([2]; applied alone): low level of activity
- activity on Penicilliums (Penicilliums): very weak
- control of the growth of Rhizoctonia (Rhizoctonia; applied alone): altogether insufficient degree
- control of the growth of Helminthosporium solani (Helminthosporium solani; applied alone): altogether insufficient degree

Compound: potassium sesquiphosphite
- Percentage of olive leaves with symptoms of infection ([2]; t1 + 90 days): 50%
- Percentage of olive leaves with symptoms of infection ([2]; t1): 41%
- Viability of Propagules (%) Rhizoctonia (Rhizoctonia; [3]): 60%
- Viability of Propagules (%) Rhizoctonia (Rhizoctonia; [4]): 22%
- Percentage of fruit affected after 14 days, value in parentheses (activity compared to the control) (Geotrichum sp): no activity
- Viability of Propagules (%) Helminthosporium solani (Helminthosporium solani; [3]): 30%
- Viability of Propagules (%) Helminthosporium solani (Helminthosporium solani; [4]): 6%

Compound: CC(C)=CCC/C(C)=C/CO [geraniol]
- Viability of Propagules (%) Rhizoctonia (Rhizoctonia; [5]): 83%
- Viability of Propagules (%) Helminthosporium solani (Helminthosporium solani; [5]): 38%

Compound: Cc1ccc(C(C)C)cc1O [carvacrol]
- Viability of Propagules (%) Rhizoctonia (Rhizoctonia; [5]): 52%
- Viability of Propagules (%) Helminthosporium solani (Helminthosporium solani; [5]): 50%
